Reference: patent publication US8470812B2, “Substituted benzo-pyrimido-tetrazolo-diazepine compounds” (ArQule, Inc., priority 2009, dated 2013)

Key:
[1] = tested on: DLD-1 cancer cells; experiment: MTS assay, cell growth inhibition; assay type: cell-based; conditions: DLD-1 cells, 72 h incubation; test concentration not given
Experimental: (§1) Cells were maintained at 37° C., 5% CO2 in DMEM media supplemented with 1% fetal bovine serum, penicillin/streptomycin and fungizone (Invitrogen). Cells were seeded into 96-well tissue culture plates at 3000 per well and cultured at 37° C. for 18 hours. Test compounds were dissolved and diluted to 300× in DMSO then diluted 1:40 in DMEM. Cells were incubated with test compounds for 72 hours followed by incubation with tetrazolium compound (3-(4,5-dimethylthiazol-2-yl)-5-(3-carboxymethoxyphenyl)-2-(4-sulfophenyl)-2H-tetrazolium, inner salt; MTS) and the electron coupling reagent, phenazine methosulfate (PMS) for 4 hours. […] The ability of compounds to inhibit cell growth in this assay is correlated with the reduction of dehydrogenase enzyme activity found in metabolically active cells. The measurement of the absorbance of the formazan was assessed using a Victor (Perkin Elmer) microplate reader at 492 nm. The calculated IC50 value is the concentration of the test compound that causes a 50% decrease in the absorbance. Selected compounds have been tested in DLD-1 and MDA-MB-231 cancer cells.

[2] = tested on: MDA-MB-231 cancer cells; experiment: MTS assay, cell growth inhibition; assay type: cell-based; conditions: MDA-MB-231 cells, 72 h incubation; test concentration not given
Experimental: as §1

| Structure (SMILES) | DLD-1, MTS, 72 h (% Inhibition) [1] | MDA-MB-231, MTS, 72 h (% Inhibition) [2] |
| --- | --- | --- |
| c1ccc2c(c1)Nc1nc(NCC3CC3)ncc1-c1nnnn1-2 [Compound 9, N-(cyclopropylmethyl)-9H-pyrimido[5,4-c]tetrazolo[1,5-a][1,5]benzodiazepin-11-amine] | 98% | 92% |
| Fc1ccc(CN2c3ccccc3-n3nnnc3-c3cnc(N4CCNCC4)nc32)cc1F [Compound 11, 9-(3,4-difluorobenzyl)-11-piperazin-1-yl-9H-pyrimido[5,4-c]tetrazolo[1,5-a][1,5]benzodiazepine] | 97% | 97% |
| Fc1ccc(CN2c3ccccc3-n3nnnc3-c3cnc(N4CCOCC4)nc32)cc1F [Compound 13, 9-(3,4-difluorobenzyl)-11-morpholin-4-yl-9H-pyrimido[5,4-c]tetrazolo[1,5-a][1,5]benzodiazepine] | 97% | 98% |
| Fc1ccc(CN2c3ccccc3-n3nnnc3-c3cnc(NCc4ccncc4)nc32)cc1F [Compound 20, 9-(3,4-difluorobenzyl)-N-(pyridin-4-ylmethyl)-9H-pyrimido[5,4-c]tetrazolo[1,5-a][1,5]benzodiazepin-11-amine] | 102% | 102% |
| CC(C)(C)OC(=O)NC1CCCN(c2ncc3c(n2)N(Cc2ccc(F)c(F)c2)c2ccccc2-n2nnnc2-3)C1 (stereo not shown) [Compound 21, tert-butyl {1-[9-(3,4-difluorobenzyl)-9H-pyrimido[5,4-c]tetrazolo[1,5-a][1,5]benzodiazepin-11-yl]piperidin-3-yl}carbamate] | 97% | 97% |
| CC(C)(C)OC(=O)N1CCN(c2ncc3c(n2)N(Cc2ccc(F)c(F)c2)c2ccccc2-n2nnnc2-3)CC1 [Compound 22, tert-butyl 4-[9-(3,4-difluorobenzyl)-9H-pyrimido[5,4-c]tetrazolo[1,5-a][1,5]benzodiazepin-11-yl]piperazine-1-carboxylate] | 95% | 93% |
| COc1cc(CNc2ncc3c(n2)Nc2ccccc2-n2nnnc2-3)cc(OC)c1 [Compound 24, N-(3,5-dimethoxybenzyl)-9H-pyrimido[5,4-c]tetrazolo[1,5-a][1,5]benzodiazepin-11-amine] | 95% | 33% |
| c1ccc(CNc2ncc3c(n2)Nc2ccccc2-n2nnnc2-3)nc1 [Compound 25, N-(pyridin-2-ylmethyl)-9H-pyrimido[5,4-c]tetrazolo[1,5-a][1,5]benzodiazepin-11-amine] | 97% | 79% |
| CC(Nc1ncc2c(n1)Nc1ccccc1-n1nnnc1-2)c1ccc(F)cc1 (stereo not shown) [Compound 33, N-[1-(4-fluorophenyl)ethyl]-9H-pyrimido[5,4-c]tetrazolo[1,5-a][1,5]benzodiazepin-11-amine] | 82% | 42% |
| c1ccc2c(c1)Nc1nc(N3CCN(c4ccncc4)CC3)ncc1-c1nnnn1-2 [Compound 34, 11-(4-pyridin-4-ylpiperazin-1-yl)-9H-pyrimido[5,4-c]tetrazolo[1,5-a][1,5]benzodiazepine] | 97% |  |
| c1ccc(CCNc2ncc3c(n2)Nc2ccccc2-n2nnnc2-3)cc1 [Compound 35, N-(2-phenylethyl)-9H-pyrimido[5,4-c]tetrazolo[1,5-a][1,5]benzodiazepin-11-amine] |  | 42% |
| Fc1ccc(CNc2ncc3c(n2)Nc2ccccc2-n2nnnc2-3)cc1F [Compound 36, N-(3,4-difluorobenzyl)-9H-pyrimido[5,4-c]tetrazolo[1,5-a][1,5]benzodiazepin-11-amine] | 31% |  |
| c1ccc2c(c1)Nc1nc(NCCN3CCCC3)ncc1-c1nnnn1-2 [Compound 37, N-(2-pyrrolidin-1-ylethyl)-9H-pyrimido[5,4-c]tetrazolo[1,5-a][1,5]benzodiazepin-11-amine] | 95% |  |
| c1ccc2c(c1)Nc1nc(NCCc3ccncc3)ncc1-c1nnnn1-2 [Compound 40, N-(2-pyridin-4-ylethyl)-9H-pyrimido[5,4-c]tetrazolo[1,5-a][1,5]benzodiazepin-11-amine] | 98% | 65% |
| CCCNc1ncc2c(n1)Nc1ccccc1-n1nnnc1-2 [Compound 41, N-propyl-9H-pyrimido[5,4-c]tetrazolo[1,5-a][1,5]benzodiazepin-11-amine] | 97% | 98% |
| CCN1CCN(c2ncc3c(n2)Nc2ccccc2-n2nnnc2-3)CC1 [Compound 43, 11-(4-ethylpiperazin-1-yl)-9H-pyrimido[5,4-c]tetrazolo[1,5-a][1,5]benzodiazepine] | 32% | 90% |
| CC(CNc1ncc2c(n1)Nc1ccccc1-n1nnnc1-2)c1ccccc1 (stereo not shown) [Compound 44, N-(2-phenylpropyl)-9H-pyrimido[5,4-c]tetrazolo[1,5-a][1,5]benzodiazepin-11-amine] | 51% |  |

| Structure (SMILES) | DLD-1, MTS, 72 h (% Inhibition) [1] | MDA-MB-231, MTS, 72 h (% Inhibition) [2] |
| --- | --- | --- |
| Cc1ccc(CNc2ncc3c(n2)Nc2ccccc2-n2nnnc2-3)cc1F [Compound 46, N-(3-fluoro-4-methylbenzyl)-9H-pyrimido[5,4-c]tetrazolo[1,5-a][1,5]benzodiazepin-11-amine] | 69% |  |
| CC(C)CN(C)c1ncc2c(n1)Nc1ccccc1-n1nnnc1-2 [Compound 47, N-methyl-N-(2-methylpropyl)-9H-pyrimido[5,4-c]tetrazolo[1,5-a][1,5]benzodiazepin-11-amine] | 46% |  |
| COc1ccccc1CNc1ncc2c(n1)Nc1ccccc1-n1nnnc1-2 [Compound 50, N-(2-methoxybenzyl)-9H-pyrimido[5,4-c]tetrazolo[1,5-a][1,5]benzodiazepin-11-amine] | 54% |  |
| Fc1ccc(CNc2ncc3c(n2)Nc2ccccc2-n2nnnc2-3)cc1Cl [Compound 55, N-(3-chloro-4-fluorobenzyl)-9H-pyrimido[5,4-c]tetrazolo[1,5-a][1,5]benzodiazepin-11-amine] | 45% |  |
| CN1CCC(Nc2ncc3c(n2)Nc2ccccc2-n2nnnc2-3)CC1 [Compound 66, N-(1-methylpiperidin-4-yl)-9H-pyrimido[5,4-c]tetrazolo[1,5-a][1,5]benzodiazepin-11-amine] | 97% |  |
| COc1ccccc1CCNc1ncc2c(n1)Nc1ccccc1-n1nnnc1-2 [Compound 69, N-[2-(2-methoxyphenyl)ethyl]-9H-pyrimido[5,4-c]tetrazolo[1,5-a][1,5]benzodiazepin-11-amine] | 58% |  |
| Cc1ccc(CNc2ncc3c(n2)Nc2ccccc2-n2nnnc2-3)cc1 [Compound 73, N-(4-methylbenzyl)-9H-pyrimido[5,4-c]tetrazolo[1,5-a][1,5]benzodiazepin-11-amine] |  | 39% |
| Fc1ccc(CCNc2ncc3c(n2)Nc2ccccc2-n2nnnc2-3)cc1 [Compound 74, N-[2-(4-fluorophenyl)ethyl]-9H-pyrimido[5,4-c]tetrazolo[1,5-a][1,5]benzodiazepin-11-amine] | 78% |  |
| Fc1cc(F)cc(CNc2ncc3c(n2)Nc2ccccc2-n2nnnc2-3)c1 [Compound 76, N-(3,5-difluorobenzyl)-9H-pyrimido[5,4-c]tetrazolo[1,5-a][1,5]benzodiazepin-11-amine] | 73% |  |
| c1csc(CNc2ncc3c(n2)Nc2ccccc2-n2nnnc2-3)c1 [Compound 81, N-(thiophen-2-ylmethyl)-9H-pyrimido[5,4-c]tetrazolo[1,5-a][1,5]benzodiazepin-11-amine] | 41% |  |
| Cc1cccc(CNc2ncc3c(n2)Nc2ccccc2-n2nnnc2-3)c1 [Compound 83, N-(3-methylbenzyl)-9H-pyrimido[5,4-c]tetrazolo[1,5-a][1,5]benzodiazepin-11-amine] | 89% |  |
| COc1cccc(CCNc2ncc3c(n2)Nc2ccccc2-n2nnnc2-3)c1 [Compound 84, N-[2-(3-methoxyphenyl)ethyl]-9H-pyrimido[5,4-c]tetrazolo[1,5-a][1,5]benzodiazepin-11-amine] | 42% |  |
| Clc1ccccc1CCNc1ncc2c(n1)Nc1ccccc1-n1nnnc1-2 [Compound 89, N-[2-(2-chlorophenyl)ethyl]-9H-pyrimido[5,4-c]tetrazolo[1,5-a][1,5]benzodiazepin-11-amine] | 31% |  |
| Cc1ccc(CCNc2ncc3c(n2)Nc2ccccc2-n2nnnc2-3)cc1 [Compound 90, N-[2-(4-methylphenyl)ethyl]-9H-pyrimido[5,4-c]tetrazolo[1,5-a][1,5]benzodiazepin-11-amine] | 61% |  |
| CC1CCCCC1Nc1ncc2c(n1)Nc1ccccc1-n1nnnc1-2 (stereo not shown) [Compound 97, N-(2-methylcyclohexyl)-9H-pyrimido[5,4-c]tetrazolo[1,5-a][1,5]benzodiazepin-11-amine] | 39% |  |
| Fc1ccc(CNc2ncc3c(n2)Nc2ccccc2-n2nnnc2-3)c(Cl)c1 [Compound 102, N-(2-chloro-4-fluorobenzyl)-9H-pyrimido[5,4-c]tetrazolo[1,5-a][1,5]benzodiazepin-11-amine] | 84% |  |
| c1ccc(CC2CCN(c3ncc4c(n3)Nc3ccccc3-n3nnnc3-4)CC2)cc1 [Compound 105, 11-(4-benzylpiperidin-1-yl)-9H-pyrimido[5,4-c]tetrazolo[1,5-a][1,5]benzodiazepine] |  | 56% |
